Where a name gives a salt, the structure may show the parent alone.
Key:
[1] = Hygroscopicity, % weight gain in 1 week at 56% and 98% relative humidity; type: physicochemical; settings: one week at 56% / 98% RH
[2] = 0.05 M phosphate buffer, pH 7.0 and 2.5

hygroscopicity compared with free base (in words) [1]: more hydroscopic than free azacitidine | rate of dissolution compared with free base (in words) (1.0 mg in water): less than the free azacitidine base | Dissolution In water (1.0 mg/mL) (time to dissolve, with Sonication): 1 min
SMILES: Nc1ncn([C@@H]2O[C@H](CO)C(O)C2O)c(=O)n1 (stereo partly shown) [Compound 19, azacitidine mesylate]
solution stability compared with free base (in words) [2]: slightly less than the free azacitidine base
